One block for each molecule: values may come before it.
How the values were obtained:
[1] = target: T1, Nuclear receptor ROR-gamma (Homo sapiens, UniProt P51449); assay: Agonist activity at human His6-tagged ROR gamma ligand binding domain (residues 262 to 507) expressed in Escherichia coli BL21 (DE3) cells assessed as increase in recruitment of coactivator peptide by AlphaScreen biochemical assay; format: functional
T1 sequence (P51449 whole entry): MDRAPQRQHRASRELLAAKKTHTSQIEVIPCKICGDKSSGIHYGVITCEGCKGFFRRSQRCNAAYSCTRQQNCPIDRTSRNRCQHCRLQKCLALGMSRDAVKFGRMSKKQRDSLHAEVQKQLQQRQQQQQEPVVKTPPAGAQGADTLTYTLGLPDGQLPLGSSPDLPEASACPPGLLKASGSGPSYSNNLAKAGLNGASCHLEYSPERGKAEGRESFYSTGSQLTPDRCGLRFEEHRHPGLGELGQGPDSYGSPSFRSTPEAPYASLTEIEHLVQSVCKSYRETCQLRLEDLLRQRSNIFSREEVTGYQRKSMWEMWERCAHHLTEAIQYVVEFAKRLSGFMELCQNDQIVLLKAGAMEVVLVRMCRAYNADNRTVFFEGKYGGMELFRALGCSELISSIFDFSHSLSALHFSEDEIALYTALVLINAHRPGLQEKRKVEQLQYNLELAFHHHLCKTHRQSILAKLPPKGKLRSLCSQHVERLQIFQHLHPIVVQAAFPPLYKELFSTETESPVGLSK

[2] = target: T2, Nuclear receptor ROR-alpha (Mus musculus) (UniProt P51448); details: CHO-K1
T2 sequence (whole entry): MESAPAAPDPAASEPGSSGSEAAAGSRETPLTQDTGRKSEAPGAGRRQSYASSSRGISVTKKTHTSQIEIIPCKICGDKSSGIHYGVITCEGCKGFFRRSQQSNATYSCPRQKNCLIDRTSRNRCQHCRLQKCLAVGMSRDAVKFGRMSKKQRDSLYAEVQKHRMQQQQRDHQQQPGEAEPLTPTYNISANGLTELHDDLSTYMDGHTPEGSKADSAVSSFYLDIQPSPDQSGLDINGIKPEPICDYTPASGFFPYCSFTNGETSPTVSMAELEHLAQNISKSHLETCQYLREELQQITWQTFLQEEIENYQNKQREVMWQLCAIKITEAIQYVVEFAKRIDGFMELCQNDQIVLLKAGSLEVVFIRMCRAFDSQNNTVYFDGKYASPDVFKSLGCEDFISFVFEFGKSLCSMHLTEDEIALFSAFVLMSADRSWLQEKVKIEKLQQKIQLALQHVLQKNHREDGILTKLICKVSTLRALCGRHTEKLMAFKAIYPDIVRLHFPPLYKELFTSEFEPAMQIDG
Description: Inverse agonist activity at mouse ROR alpha expressed in CHO-K1 cells after 24 hrs by luciferase reporter gene assay relative to vehicle control response

[3] = target: T3, Nuclear receptor ROR-gamma (Mus musculus) (UniProt P51450); details: CHO-K1
T3 sequence (whole entry): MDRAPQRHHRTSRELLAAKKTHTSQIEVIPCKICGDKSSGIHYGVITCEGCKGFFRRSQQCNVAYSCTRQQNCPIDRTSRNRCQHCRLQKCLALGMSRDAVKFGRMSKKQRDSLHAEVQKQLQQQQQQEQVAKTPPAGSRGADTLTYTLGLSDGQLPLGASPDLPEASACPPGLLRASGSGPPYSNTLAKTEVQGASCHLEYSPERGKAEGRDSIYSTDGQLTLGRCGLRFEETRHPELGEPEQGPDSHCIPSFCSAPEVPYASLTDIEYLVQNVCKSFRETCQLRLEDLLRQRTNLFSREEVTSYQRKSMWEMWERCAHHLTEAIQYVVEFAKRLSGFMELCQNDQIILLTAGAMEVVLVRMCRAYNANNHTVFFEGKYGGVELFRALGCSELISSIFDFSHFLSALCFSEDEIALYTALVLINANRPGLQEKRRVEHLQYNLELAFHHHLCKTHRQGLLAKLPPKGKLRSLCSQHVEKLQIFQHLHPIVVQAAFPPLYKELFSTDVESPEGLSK
Description: Inverse agonist activity at mouse ROR gamma expressed in CHO-K1 cells after 24 hrs by luciferase reporter gene assay relative to vehicle control response

[4] = target: T1, Nuclear receptor ROR-gamma; assay: Activity at human His(GST)-tagged ROR gamma LBD expressed in Escherichia coli BL21 (DE3) cells assessed as receptor-biotinylated SRC1 peptide interaction by TR-FRET assay; format: functional
[5] = Plasma concentration in mouse at 10 mg/kg, ip after 4 hrs; format: ADME, organism-based; set-up: dose 10 mg/kg, route intraperitoneal
[6] = target: T4, Nuclear receptor ROR-alpha (Homo sapiens, UniProt P35398); assay: Inverse agonist activity at GAL4-fused ROR alpha (unknown origin) expressed in HEK293 cells assessed as inhibition of transcriptional activity after 24 hrs by luciferase reporter gene assay; format: cell-based
T4 sequence (P35398 whole entry): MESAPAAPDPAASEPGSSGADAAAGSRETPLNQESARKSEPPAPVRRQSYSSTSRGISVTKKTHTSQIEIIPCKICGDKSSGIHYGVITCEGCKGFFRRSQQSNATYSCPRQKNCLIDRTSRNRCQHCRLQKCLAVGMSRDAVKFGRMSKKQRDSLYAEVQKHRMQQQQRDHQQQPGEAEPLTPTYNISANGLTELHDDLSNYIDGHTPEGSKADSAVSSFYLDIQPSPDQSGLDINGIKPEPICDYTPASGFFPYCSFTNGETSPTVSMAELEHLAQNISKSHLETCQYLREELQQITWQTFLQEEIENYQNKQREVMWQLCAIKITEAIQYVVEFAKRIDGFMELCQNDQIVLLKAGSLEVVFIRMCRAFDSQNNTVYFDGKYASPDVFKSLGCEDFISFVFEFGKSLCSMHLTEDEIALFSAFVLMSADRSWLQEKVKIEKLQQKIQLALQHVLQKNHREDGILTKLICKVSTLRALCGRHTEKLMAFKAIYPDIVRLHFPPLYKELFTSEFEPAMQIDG

[7] = target: T4, Nuclear receptor ROR-alpha; assay: Displacement of 25-[3H]hydroxycholesterol from GST-tagged ROR alpha ligand binding domain (unknown origin) expressed in Escherichia coli BL21 gold (DE3) cells by radioligand competition assay
[8] = Plasma concentration in mouse at 10 mg/kg, ip after 0.5 hrs; format: ADME, organism-based; set-up: dose 10 mg/kg, route intraperitoneal
[9] = target: T5, Oxysterols receptor LXR-alpha (Homo sapiens) (UniProt Q13133); assay: Activation of GAL4-fused LXR alpha (unknown origin) expressed in HEK293T cells after 20 hrs relative to T0901317; format: cell-based; details: HEK-293T
T5 sequence (whole entry): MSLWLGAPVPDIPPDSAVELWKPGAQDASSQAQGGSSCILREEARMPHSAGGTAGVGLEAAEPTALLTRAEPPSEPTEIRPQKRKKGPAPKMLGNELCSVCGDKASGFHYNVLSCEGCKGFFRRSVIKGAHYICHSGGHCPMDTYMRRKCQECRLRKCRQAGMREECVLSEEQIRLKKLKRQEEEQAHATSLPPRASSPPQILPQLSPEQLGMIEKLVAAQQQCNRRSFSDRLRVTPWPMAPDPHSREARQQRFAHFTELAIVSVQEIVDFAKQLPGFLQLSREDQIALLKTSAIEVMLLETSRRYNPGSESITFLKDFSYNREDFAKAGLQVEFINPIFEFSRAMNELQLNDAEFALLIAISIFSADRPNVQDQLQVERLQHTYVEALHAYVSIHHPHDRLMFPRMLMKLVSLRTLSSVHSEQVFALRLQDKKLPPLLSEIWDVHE

[10] = target: T6, Nuclear receptor ROR-beta (Homo sapiens) (UniProt Q92753); assay: Inhibition of ROR beta (unknown origin)-mediated transactivation
T6 sequence (whole entry): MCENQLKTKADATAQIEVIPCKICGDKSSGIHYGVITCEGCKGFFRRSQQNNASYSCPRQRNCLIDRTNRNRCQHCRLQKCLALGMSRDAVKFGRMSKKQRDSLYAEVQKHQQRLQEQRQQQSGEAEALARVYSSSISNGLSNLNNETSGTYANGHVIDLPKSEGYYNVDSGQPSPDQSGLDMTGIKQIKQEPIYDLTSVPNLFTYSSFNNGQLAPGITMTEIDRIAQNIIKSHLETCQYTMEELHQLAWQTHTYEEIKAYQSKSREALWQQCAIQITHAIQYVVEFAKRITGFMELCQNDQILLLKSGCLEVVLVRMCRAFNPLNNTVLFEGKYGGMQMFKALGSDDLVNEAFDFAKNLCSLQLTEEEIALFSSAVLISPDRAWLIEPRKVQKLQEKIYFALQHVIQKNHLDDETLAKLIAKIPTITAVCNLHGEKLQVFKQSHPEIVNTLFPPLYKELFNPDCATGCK

[11] = target: T7, Estrogen-related receptor gamma (Homo sapiens, UniProt P62508); assay: Binding affinity to human ERR gamma
T7 sequence (P62508 whole entry): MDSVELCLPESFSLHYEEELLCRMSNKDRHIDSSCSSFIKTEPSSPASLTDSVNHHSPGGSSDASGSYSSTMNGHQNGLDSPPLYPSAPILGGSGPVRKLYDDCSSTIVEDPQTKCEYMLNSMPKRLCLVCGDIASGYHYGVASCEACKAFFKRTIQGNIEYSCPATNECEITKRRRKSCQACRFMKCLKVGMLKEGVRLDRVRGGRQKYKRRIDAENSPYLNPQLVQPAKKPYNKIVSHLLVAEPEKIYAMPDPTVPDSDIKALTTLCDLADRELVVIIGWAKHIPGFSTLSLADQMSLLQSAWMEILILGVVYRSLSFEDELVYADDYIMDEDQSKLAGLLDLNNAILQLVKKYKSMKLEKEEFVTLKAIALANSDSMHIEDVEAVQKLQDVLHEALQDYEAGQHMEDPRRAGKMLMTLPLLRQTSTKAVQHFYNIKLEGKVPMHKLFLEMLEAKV

[12] = target: T8, Nuclear receptor ROR-gamma (Homo sapiens) (UniProt P51449); assay: Binding affinity to human ROR gamma ligand binding domain assessed as thermal stability shift by circular dichroism analysis
T8 sequence (whole entry): T1 sequence (P51449 whole entry)

[13] = target: T1, Nuclear receptor ROR-gamma; assay: Displacement of 25-[3H]hydroxycholesterol from ROR gamma (unknown origin) by competitive binding assay
[14] = target: T1, Nuclear receptor ROR-gamma; assay: Displacement of 25-[3H]hydroxycholesterol from GST-tagged ROR gamma ligand binding domain (unknown origin) expressed in Escherichia coli BL21 gold (DE3) cells by radioligand competition assay
[15] = target: T1, Nuclear receptor ROR-gamma
Description: Inverse agonist activity at GAL4-fused ROR gamma (unknown origin) expressed in HEK293 cells assessed as inhibition of transcriptional activity after 24 hrs by luciferase reporter gene assay

Compound: CC(CO)CCC[C@@H](C)[C@H]1CC[C@H]2[C@@H]3CC=C4C[C@@H](O)CC[C@]4(C)[C@H]3CC[C@]12C (stereo not given in full)
EC50 [1]: 20 nM

Compound: Clc1ccc(CS/C(Cn2cncn2)=N\c2ccc(Cl)cc2Cl)cc1
IC20 [2]: 10000 nM
IC20 [3]: 3000 nM

EC50 [4]: 11 nM
Compound: O=C(O)c1ccc(-c2nn(C(=O)c3c(Cl)cccc3Cl)c3ccccc23)cc1

Compound: CC(C)CC[C@@H](O)[C@@H](C)[C@H]1CC[C@H]2[C@@H]3CC=C4C[C@@H](O)CC[C@]4(C)[C@H]3CC[C@]12C [22(R)-HYDROXYCHOLESTEROL]
EC50 [1]: 20 nM

concentration at 4 h [5]: > 0.36 µM
EC50 [6]: 480 nM
Ki [7]: 220 nM
concentration at 0.5 h [8]: 9 µM
Compound: O=S(=O)(Nc1ccc(C(O)(C(F)(F)F)C(F)(F)F)cc1)c1cccs1

Activity [9]: < 5%
Compound: OC(c1ccc(-c2ccc(CN3CCN(Cc4ccncc4)CC3)cc2)c(F)c1)(C(F)(F)F)C(F)(F)F

Imax [10]: 70%
Compound: CC1=C(/C=C/C(C)=C/C=C/C(C)=C/C(=O)O)C(C)(C)CCC1

Compound: CCCOC/C(=N\c1ccc(Cl)cc1C(F)(F)F)n1ccnc1
IC20 [2]: 10000 nM

Compound: CC(C)(c1ccc(O)cc1)c1ccc(O)cc1 [BISPHENOL A]
Kd [11]: 5.5 nM

Compound: CC(C)CCC[C@@H](C)[C@H]1CC[C@H]2[C@@H]3C(=O)C=C4C[C@@H](O)CC[C@]4(C)[C@H]3CC[C@]12C [7-OXOCHOLESTEROL]
Ki [7]: 12 nM

Compound: CC(C)CCC(O)[C@@H](C)[C@H]1CC[C@H]2[C@@H]3CC=C4C[C@@H](O)CC[C@]4(C)[C@H]3CC[C@]12C (stereo not given in full)
melting temperature shift (delta Tm) [12]: 7.3 °C

Compound: CCC(C)c1cc(C(C)(C)c2ccc(O)c(C(C)CC)c2)ccc1O (stereo not given)
IC50 [13]: 150 nM

Compound: CC(=O)Nc1nc(C)c(S(=O)(=O)Nc2ccc(C(O)(C(F)(F)F)C(F)(F)F)cc2)s1
Ki [14]: 111 nM
EC50 [15]: 4000 nM
EC50 [6]: 4000 nM
Ki [7]: 172 nM

Reference: ChEMBL document CHEMBL3217638, “Synthetic modulators of the retinoic acid receptor-related orphan receptors” (Medchemcomm, 2013)
